PubChem BioAssay AID1996
Converted amounts (≈) assume the structure as drawn.

Conditions: buffer; pH 7.4; 200.0 µM

SMILES | solubility kinetic [µg/mL]
COc1ccc(NS(=O)(=O)c2cn(C)cn2)cc1OC | 32.9 (≈ 111 µM)
COC(=O)/C=C1/SC(=NC(=O)c2ccc(OC)cc2)NC1=O | 9.2 (≈ 28.7 µM)
CC1(C)Cc2cccc(C(=O)NCc3ccco3)c2O1 | 32.9 (≈ 121 µM)
CCN(CC)CCCNc1oc(/C=C/c2ccccc2)nc1C#N | > 48.7
CCOC(=O)C1CCCN(Cc2cc(=O)oc3cc(C)ccc23)C1 (stereo not given) | 40.5 (≈ 123 µM)
COc1ccc(C2(C)NC(=O)N(CC(=O)NC3CC3)C2=O)cc1 (stereo not given) | 43.3 (≈ 136 µM)
Cc1ccc(S(=O)(=O)NCC(C)NC(=O)CN2CCOCC2)cc1 (stereo not given) | > 53.3
COc1ccc(C2C(C#N)=C(N)Oc3cc(O)ccc32)cc1C (stereo not given) | 31.5 (≈ 102 µM)
CC1=C(C(=O)Nc2cccc(C(=O)NC(C)C)c2)SCCO1 | 47.9 (≈ 149 µM)
CSc1ccccc1C(=O)OCC(=O)N1CCCCCC1 | > 46.1
CCOC(=O)C(Cc1c(F)cccc1Cl)c1ccno1 (stereo not given) | 29.6 (≈ 99.4 µM)
Cc1nc(-c2noc(-c3cccc(Cl)c3)n2)c(C(F)(F)F)o1 | < 0.2
CCOc1cccc(C(=O)NC(=S)Nc2ccc(Cl)cc2C(=O)O)c1 | 55.2 (≈ 146 µM)
O=C(CNC(=O)c1ccco1)N/N=C/c1ccc(O)cc1O | > 45.5
COC(=O)c1sccc1NC(=O)COc1ccc(F)cc1Cl | < 0.7
CCN(C(=O)c1ccc(Br)o1)C1CCS(=O)(=O)C1 (stereo not given) | > 50.4
CCC(C)CN1CCC(CO)(Cc2ccccc2Cl)CC1 (stereo not given) | > 46.5
S=C(NCc1cccs1)Nc1cc(Cl)cc(Cl)c1 | 0.7 (≈ 2.21 µM)
CN1CN=C(NS(=O)(=O)c2ccc([N+](=O)[O-])cc2)NC1 | > 44.9
Cc1ccc(NC(=S)NC(=O)C2CCC2)cc1C | 3.3 (≈ 12.6 µM)
CC(C)NCC(O)COc1cccc2[nH]ccc12 (stereo not given) | > 37.2
CCCc1nc2sc3c(c2c(=O)[nH]1)CCCC3 | 1.3 (≈ 5.23 µM)
C/C(=C/c1ccccc1)C(=O)N1CCC(C)CC1 | > 36.5
Cc1onc(-c2c(Cl)cccc2Cl)c1/C(N)=N/OC(=O)C1CC1 | 47.1 (≈ 133 µM)
Cc1ccc(/C=C/C(=O)NCc2cccs2)c(C)c1 | < 0.6
Cc1cccc(OCC(=O)OC(C)CN2CCCCC2)c1.Cl (stereo not given) | > 49.2
O=C1NC2(CCCCCC2)C(=O)N1Cc1cccc(Cl)c1 | 15.8 (≈ 51.5 µM)
COc1ccc(/C=C/C(=O)OCC(=O)NC(=O)NC(C)(C)C)cc1 | < 0.4
CCn1c(C)cc(C)c(C#N)c1=O | > 26.4
C=C(C)[C@@H]1CC=C(CN2CCN(Cc3ccccc3)CC2)CC1 | 9.9 (≈ 31.9 µM)

The next lines start with the values.

solubility kinetic [µg/mL] | SMILES
> 40.1 | COc1ccc(NC(=O)c2ccco2)c2ccccc12
31.2 (≈ 108 µM) | CN1c2ccccc2C(=O)NC1c1ccc([N+](=O)[O-])s1 (stereo not given)
> 46.7 | Cc1cccc(N2CCCn3c2nc2c3c(=O)[nH]c(=O)n2C)c1
< 0.8 | S=C(c1ccc(-c2ccc(Br)cc2)o1)N1CCOCC1
52.7 (≈ 149 µM) | CN1CCN(c2nc3c(c(=O)[nH]c(=O)n3C)n2Cc2ccccc2)CC1
1.1 (≈ 3.59 µM) | Cc1cc(C)cc(NC(=S)Nc2cccc3ccccc23)c1
0.7 (≈ 2.19 µM) | COc1ccc(CC(=O)NC(C)c2ccc3ccccc3c2)cc1 (stereo not given)
5.3 (≈ 10.4 µM) | COc1ccc(C(=O)Nc2cccc(S(=O)(=O)N3CCCC3)c2)cc1S(=O)(=O)N1CCOCC1
> 35.9 | O=C(O)c1cnn2c(-c3ccccc3)ccnc12
33.1 (≈ 119 µM) | Fc1ccc(Nc2c3c(nc4ccccc24)CCC3)cc1
2.4 (≈ 10 µM) | O=C(C#Cc1ccccc1)Nc1ccc(F)cc1
> 45.5 | COc1cccc(CN2CCc3[nH]c(=S)[nH]c(=O)c3C2)c1
> 52.1 | Cc1[nH]c2ccccc2c1-c1csc(NC(=O)CSCCO)n1
10.8 (≈ 38.1 µM) | C=CCC(Nc1ccccc1)c1cccc(OC)c1OC (stereo not given)
30.3 (≈ 94.3 µM) | O=C(c1c(F)cccc1F)N(Cc1cccs1)C1CCCC1
34.6 (≈ 120 µM) | CN(CCO)CCOCCOc1cccc2ccccc12
2.4 (≈ 8.72 µM) | CCOc1ccccc1C(=O)Nc1c[nH]c(=O)[nH]c1=O
> 49 | O=C(Nc1ccc(O)cc1)c1ccc(NC(=O)C2CCCO2)cc1 (stereo not given)
> 35 | COc1ccccc1NC(=O)CC1CCCC1
> 61.4 | COc1ccc(-c2csc(NC(=O)c3ccc(C(C)(C)C)cc3)c2C(=O)O)cc1
> 40.8 | COc1ccc(C2NC(=O)NC3=C2C(=O)CCC3)cc1 (stereo not given)
> 48.2 | Cc1onc(-c2ccccc2)c1C(=O)N(C)CCc1ccccn1
0.5 (≈ 1.56 µM) | Cc1cccc(NC(=O)c2ccccc2NC(=O)c2ccco2)c1
2.7 (≈ 8.77 µM) | CC(C)c1ccc(Nc2nc(Cl)nc(NCCO)n2)cc1
2.8 (≈ 9.85 µM) | Cc1ccc(C(=O)Nc2ccccc2N2CCCCC2)o1
> 38.3 | COc1ccc(N2C(=O)c3ccccc3C2O)cc1 (stereo not given)
> 44.1 | O=C(O)c1ccc(Nc2ccc(F)c(F)c2)c([N+](=O)[O-])c1
1 (≈ 2.45 µM) | Cc1oc(-c2ccc(Cl)cc2)cc1C(=O)NC1CCN(Cc2ccccc2)CC1
20.9 (≈ 61.4 µM) | COCC(=O)Nc1ccc2c(c1)OCC(=O)N2Cc1ccc(C)cc1
16.8 (≈ 49.5 µM) | Cc1ccc(C(=O)OCC(=O)N(Cc2ccccc2)C(C)C)cc1C
